Measurements from patent publication US9884881B2, “Chelates of lead (II) and bismuth (III) based on trans-di-N-picolinate tetraazacycloalkanes” (CNRS—CENTRE NATIONAL DE LA RECHERCHE SCIENTIFIQUE, priority 2013, dated 2018).

Legend:
[1] = In vitro stability of the radio-labeled chelate in human plasma; format: in vitro ADME
Procedure: The stability of the serum and of the in vitro chelate were also studied by TLC and by HPLC.
For the stability of the serum, 200 μL of radiomarked Me-DODPA^2− solution (activity: 1 MBq, radiochemical purity: 95%) were mixed with 800 μL of human plasma. The plasma stability values were controlled in comparison with free ^213Bi, after 1 and 2 hours of incubation (about 1 and 2 half-lives) at ambient temperature by direct gel permeation chromatography on plasma in a PD-10 column and by TLC analysis of this supernatant after precipitation of the plasma proteins with ammonium sulfate. The TLC analysis was performed under the same conditions as earlier. After precipitation, the activity in the precipitate was measured (78.8%) as also the activity in the supernatant ([…]).

[2] = 1H NMR competition with DOTA for complexation of bismuth (III); format: physicochemical
Procedure: As regards the chelate of Me-DODPA and bismuth (III) or DODPA and bismuth (III), the thermodynamic stability constants were evaluated by NMR ^1H (in a concentration of 10^−2 M) in studying the competitivity of the complexation of bismuth (III) with Me-DODPA or DODPA and DOTA. Indeed, such a constant cannot be measured directly by potentiometery for the bismuth chelates
A mole equivalent of […] was added to an equimolar solution of DODPA and DOTA at pH=1. The pH was then adjusted to 3 and an NMR spectrum was recorded. After five days at 25° C., it was observed that about 40% of the DODPA had been complexated with bismuth (III). […] Chem., 2003, 42, 2342-2349, is about 30.3.

[3] = Kinetics of complexation with lead (II) by UV/Vis spectroscopy; format: physicochemical; conditions: equimolar 0.74×10^-4 M, pH=7
Description: (§1) The kinetics of complexation of Me-DODPA chelates with bismuth (III) and lead (II) were studied by UV/Vis spectroscopy.
Referring to FIG. 4, a total complexation of Me-DODPA with lead (II) was observed ten minutes after the equimolar mixing (0.74×10^−4 M) of an aqueous solution of PbCl2 and an aqueous solution of Me-DODPA at pH=7.

[4] = Kinetics of complexation with bismuth (III) by UV/Vis spectroscopy; format: physicochemical; conditions: 1.65×10^-4 M each, stirring at ambient temperature
Procedure: as §1
An aqueous solution of Bi(NO3)3.5H2O (1.65×10^−4 M) was added to an aqueous solution of Me-DODPA (1.65×10^−4M). The UV/Vis spectra were recorded at different reaction times.

[5] = Thermodynamic stability constant pK of lead (II) chelates by potentiometry; format: physicochemical; conditions: 25° C., 0.10 M in KNO3
Procedure: (§2) For the DODPA or Me-DODPA chelates with lead (II), the thermodynamic stability constant pK was determined directly by potentiometery at 25° C., for a concentration of 0.10 M in KNO3. […] The pM values corresponding to the non-chelated lead concentrations were therefore computed for the DODPA or Me-DODPA chelates with lead (II) and compared with the value known for the DOTA chelate with lead (II). This value pM is defined by the negative logarithm of the free metal concentration at a pH of 7.4 and with a concentration of Pb(II) of 10 μM and a ligand concentration that is ten times greater. A pM value of 12.3 was measured for the chelate of DODPA and lead (II) and 14.9 for the chelate of Me-DODPA and lead (II) while the known pM value for the complex of DOTA and lead (II) is 18.4

[6] = pM value (free lead concentration) of lead (II) chelates; format: physicochemical; conditions: pH 7.4, Pb(II) 10 μM, ligand concentration ten times greater
Procedure: as §2

[7] = Kinetics of dissociation of complexes in DCl 0.1 M by NMR; format: physicochemical
Procedure: The kinetics of dissociation of these complexes were also studied by NMR. In this context, the [Bi(Me-DODPA)](NO3) and [Pb(Me-DODPA)] complexes were dissolved in DCl 0.1 M.

[8] = human plasma, ammonium sulfate precipitation

CN1CCN(Cc2cccc(C(=O)[O-])n2)CCN(C)CCN(Cc2cccc(C(=O)[O-])n2)CC1.CN1CCN(Cc2cccc(C(=O)[O-])n2)CCN(C)CCN(Cc2cccc(C(=O)[O-])n2)CC1.CN1CCN(Cc2cccc(C(=O)[O-])n2)CCN(C)CCN(Cc2cccc(C(=O)[O-])n2)CC1.[213Bi+3].[213Bi+3] [(^213Bi(Me-DODPA))^+]
stability in human plasma ([1]; 1 and 2 hours of incubation at ambient temperature): stable in human plasma for at least two half-lives
radioactivity of the supernatant detected at Fr=0.5 (intact chelate), TLC ([1]; human plasma supernatant after protein precipitation): more than 90%
activity in the precipitate after precipitation of plasma proteins [1, 8]: 78.8%
activity in the supernatant after precipitation of plasma proteins [1, 8]: 3.8%

O=C(O)c1cccc(CN2CCNCCN(Cc3cccc(C(=O)O)n3)CCNCC2)n1 [DODPA]
ligand complexated with bismuth (III) in competition with DOTA ([2]; equimolar ligand and DOTA, one mole equivalent Bi, pH 3, five days at 25° C., 10^-2 M): about 40%

CN1CCN(Cc2cccc(C(=O)O)n2)CCN(C)CCN(Cc2cccc(C(=O)O)n2)CC1 [Me-DODPA]
time to total complexation with lead (II) [3]: ten
time to total complexation with bismuth (III) [4]: 30 min
bismuth (III) complexated in equimolar mixture of ligand and DOTA ([2]; equimolar mixture of Me-DODPA and DOTA): the totality of the bismuth (III) was complexated by the Me-DODPA

O=C([O-])c1cccc(CN2CCNCCN(Cc3cccc(C(=O)[O-])n3)CCNCC2)n1.[Pb+2] [Pb(DODPA)]
thermodynamic stability constant pK [5]: 17.09
pM value (negative logarithm of the free metal concentration) [6]: 12.3

CN1CCN(Cc2cccc(C(=O)[O-])n2)CCN(C)CCN(Cc2cccc(C(=O)[O-])n2)CC1.[Pb+2] [[Pb(Me-DODPA)]]
thermodynamic stability constant pK [5]: 18.74
pM value (negative logarithm of the free metal concentration) [6]: 14.9
dissociation of the complex [7]: total dissociation of the complex [Pb(Me-DODPA)] was observed at the end of seven days
